Measurements published in ChEMBL document CHEMBL5620390, “A novel multifunctional mitochondrion-targeting NIR fluorophore probe inhibits tumour proliferation and metastasis through the PPARγ/ROS/β-catenin pathway” (Eur J Med Chem, 2023).
Activity calls are given as the source filed them. The rule behind the calls is not given here.

Tests used:
[1] = Drug uptake in mouse B16-F10 cells assessed as fluorescence intensity at 2.5 uM incubated for 1 hr by confocal laser scanning microscopic analysis; type: ADME, cell-based; conditions: b16-f10, 1 h
[2] = Drug uptake in human MDA-MB-231 cells assessed as fluorescence intensity at 2.5 uM incubated for 1 hr by confocal laser scanning microscopic analysis; type: ADME, cell-based; conditions: mda-mb-231, 1 h
[3] = Drug uptake in human A549 cells assessed as fluorescence intensity at 2.5 uM incubated for 1 hr by confocal laser scanning microscopic analysis; type: ADME, cell-based; conditions: a549, 1 h
[4] = Drug uptake in human A-375 cells mitochondria at 2.5 uM incubated for 45 mins by mito-tracker green dye based confocal laser scanning fluorescence microscopy analysis; type: ADME; conditions: a-375, 0.75 h
[5] = Cytotoxicity against human A-375 cells assessed as cell viability at 40 uM incubated for 24 hrs by MTT assay; type: toxicity, cell-based; conditions: read-out: Activity
A-375 [6] = test: Inhibition of ROS generation in human A-375 cells preincubated with rosiglitazone for 2 hrs followed by wash out and compound addition for 1 hr by DCFH-DA staining based inverted fluorescence microscopic analysis; type: functional, cell-based
A-375 [7] = test: Induction of ROS generation in human A-375 cells assessed as reduction in PPARgamma expression level at 1.25 uM incubated for 24 hrs; type: functional, cell-based
A-375 [8] = test: Induction of ROS generation in human A-375 cells assessed as reduction in PPARgamma expression level at 1.25 uM preincubated with rosiglitazone for 24 hrs followed by compound addition for 24 hrs; type: functional, cell-based
A-375 [9] = test: Induction of ROS generation in human A-375 cells assessed as reduction in GPX1 expression level at 1.25 uM preincubated with rosiglitazone for 24 hrs followed by compound addition for 24 hrs; type: functional, cell-based
B16-F10 [10] = test: Induction of ROS generation in mouse B16-F10 cells assessed as reduction in GPX1 expression level at 1.25 uM preincubated with rosiglitazone for 24 hrs followed by compound addition for 24 hrs; type: functional, cell-based
A-375 [11] = test: Antiproliferative activity against human A-375 cells assessed as inhibition of cell growth at 0.31 uM after 72 hrs by MTT assay; type: functional; set-up: scale not given: the % may be the effect or the level left
MDA-MB-231 = test: Antiproliferative activity against human MDA-MB-231 cells assessed as inhibition of cell growth at 0.31 uM after 72 hrs by MTT assay; type: functional; set-up: scale not given: the % may be the effect or the level left
A549 = test: Antiproliferative activity against human A549 cells assessed as inhibition of cell growth at 0.31 uM after 72 hrs by MTT assay; type: functional; set-up: scale not given: the % may be the effect or the level left
A-375 [12] = test: Antiproliferative activity against human A-375 cells assessed as inhibition of cell growth at 0.04 to 10 uM by MTT assay; type: functional, cell-based; conditions: dose 0.04-10 µM, time 24-72 hrs, TDE = time-dependent effect
B16-F10 [13] = test: Antiproliferative activity against mouse B16-F10 cells assessed as inhibition of cell growth at 0.04 to 10 uM by MTT assay; type: functional, cell-based; conditions: dose 0.04-10 µM, time 24-72 hrs, TDE = time-dependent effect
A-375 [14] = test: Antiproliferative activity against human A-375 cells assessed as inhibition of cell growth after 24 to 72 hrs by MTT assay; type: functional, cell-based
B16-F10 [15] = test: Induction of cell cycle arrest in mouse B16-F10 cells assessed as accumulation of cells at G0/G1 phase incubated for 24 hrs by PI staining based flow cytometry analysis (reference value: 10.93%); type: functional
B16-F10 [16] = test: Inhibition of tumor metastasis in mouse B16-F10 cells assessed as reduction in wound healing after 24 hrs; type: functional, cell-based; conditions: dose 0.08-1.25 µM
A-375 [17] = test: Inhibition of cell migration in human A-375 cells after 24 hrs by transwell assay; type: functional, cell-based; conditions: dose 0.31-1.25 µM
B16-F10 [18] = test: Inhibition of cell migration in mouse B16-F10 cells after 24 hrs by transwell assay; type: functional, cell-based; conditions: dose 0.31-1.25 µM
A-375 [19] = test: Inhibition of Wnt/beta-catenin signaling in human A-375 cells assessed as reduction in beta-catenin expression at 1.25 uM preincubated with rosiglitazone for 24 hrs followed by compound addition and measured after 24 hrs in presence of H2O2; type: cell-based
B16-F10 [20] = test: Inhibition of Wnt/beta-catenin signaling in mouse B16-F10 cells assessed as reduction in beta-catenin expression at 1.25 uM preincubated with rosiglitazone for 24 hrs followed by compound addition and measured after 24 hrs in presence of H2O2; type: cell-based
B16-F10 [21] = test: Inhibition of Wnt/beta-catenin signaling in mouse B16-F10 cells assessed as reduction in TCF4 expression at 1.25 uM preincubated with rosiglitazone for 24 hrs followed by compound addition and measured after 24 hrs in presence of H2O2; type: cell-based
A-375 [22] = test: Induction of cell cycle arrest in human A-375 cells assessed as reduction in Cdk2 protein level at 0.31 to 1.25 uM after 24 hrs by Western blotting analysis; type: functional, cell-based; conditions: dose 0.31-1.25 µM
A-375 [23] = test: Induction of cell cycle arrest in human A-375 cells assessed as reduction in Cdk4 protein level at 0.31 to 1.25 uM after 24 hrs by Western blotting analysis; type: functional, cell-based; conditions: dose 0.31-1.25 µM
A-375 [24] = test: Induction of cell cycle arrest in human A-375 cells assessed as P27 protein accumulation at 0.31 to 1.25 uM after 24 hrs by Western blotting analysis; type: functional, cell-based; conditions: dose 0.31-1.25 µM
B16-F10 [25] = test: Induction of cell cycle arrest in mouse B16-F10 cells assessed as P27 protein accumulation at 0.31 to 1.25 uM after 24 hrs by Western blotting analysis; type: functional, cell-based; conditions: dose 0.31-1.25 µM
A-375 [26] = test: Inhibition of cell metastasis in human A-375 cells assessed as reduction in MMP2 protein level at 0.31 to 1.25 uM after 24 hrs by Western blotting analysis; type: functional, cell-based; conditions: dose 0.31-1.25 µM
B16-F10 [27] = test: Inhibition of cell metastasis in mouse B16-F10 cells assessed as reduction in MMP9 protein level at 0.31 to 1.25 uM after 24 hrs by Western blotting analysis; type: functional, cell-based; conditions: dose 0.31-1.25 µM
B16-F10 [28] = test: Antitumor activity against mouse B16-F10 cells inoculated in C57BL/6J mouse assessed as reduction in tumor growth at 0.5 to 2 mg/kg, ip administered every other day and measured on day 22; type: functional, organism-based; conditions: dose 0.5-2 mg/kg, time 22.0 day
[29] = Toxicity in C57BL/6J mouse inoculated with mouse B16-F10 cells assessed as reduction in body weight at 2 mg/kg, ip administered every other day and measured after 16 days; type: organism-based; conditions: in vivo, 384 h, time 16 day
[30] = Toxicity in C57BL/6J mouse inoculated with mouse B16-F10 cells assessed as effect on spleen morphology at 2 mg/kg, ip administered every other day for 22 days by H and E staining based assay; type: organism-based; conditions: in vivo, 528 h, time 22 day
[31] = Toxicity in C57BL/6J mouse inoculated with mouse B16-F10 cells assessed as effect on lung morphology at 2 mg/kg, ip administered every other day for 22 days by H and E staining based assay; type: organism-based; conditions: in vivo, 528 h, time 22 day
[32] = Renal toxicity in C57BL/6J mouse inoculated with mouse B16-F10 cells assessed as change in BUN level at 2 mg/kg, ip administered every other day for 22 days; type: organism-based; conditions: in vivo, 528 h, time 22 day
B16-F10 [33] = test: Antitumor activity against mouse B16-F10 cells inoculated in mouse assessed as reduction in tumor invasion at 2 mg/kg, ip administered every other day and measured on day 18 by H and E staining based assay; type: functional, organism-based; conditions: time 18.0 day

Compound: CC[N+]1=C(/C=C/C2=C(Cl)C(=C/C=C3\N(CCCCCC(=O)O/C(=N/C4CCCCC4)NC4CCCCC4)c4ccccc4C3(C)C)/CCC2)C(C)(C)c2ccccc21.[Br-]
- Drug uptake [1]: Active
- Drug uptake [2]: Active
- Drug uptake [3]: Active
- Drug uptake [4]: Active
- viability at 24 h, 40 µM [5]: 90%
- Activity (A-375 [6]): Dose-Dependent Effect
- Activity (A-375 [7]): Active
- Activity (A-375 [8]): inactive
- Activity (A-375 [9]): inactive
- Activity (B16-F10 [10]): inactive
- Activity (A-375 [11]): 70%
- Activity (MDA-MB-231): 70%
- Activity (A549): 70%
- Activity (A-375 [12]): Tde
- Activity (B16-F10 [13]): Tde
- IC50 (A-375 [14]): 180 nM
- Activity (A-375 [14]; time 24-72 hrs): Dose-Dependent Effect
- Activity (B16-F10 [15]): 40.75%
- inhibition (B16-F10 [16]): Dose-Dependent Effect
- inhibition (A-375 [17]): Dose-Dependent Effect
- inhibition (B16-F10 [18]): Dose-Dependent Effect
- inhibition (A-375 [19]): inactive
- inhibition (B16-F10 [20]): inactive
- Activity (B16-F10 [21]): inactive
- Activity (A-375 [22]): Active
- Activity (A-375 [23]): Active
- Activity (A-375 [24]): Active
- Activity (B16-F10 [25]): Active
- inhibition (A-375 [26]): Active
- inhibition (B16-F10 [27]): Active
- Activity (B16-F10 [28]): Active
- Activity [29]: Non-Toxic
- Activity [30]: Non-Toxic
- Activity [31]: Non-Toxic
- Activity [32]: Non-Toxic
- Activity (B16-F10 [33]): Active
